Laboratory results reported in patent publication US20150105252A1, “SUBSTITUTED PYRAZOLES AS HERBICIDES” (E I DU PONT DE NEMOURS AND COMPANY, priority 2013, published 2015).

Tests used:
crabgrass, large [1] = test: Test A postemergence; type: in vivo, Digitaria sanguinalis; details: Postemergence
Outline: (§1)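 Seeds were sown in a loam soil–sand blend and given a directed soil spray preemergence; postemergence plants at 2–10 cm, one- to two-leaf stage, were sprayed with compound in non-phytotoxic solvent with surfactant. After about 10 days in a greenhouse, injury was visually rated against untreated controls (0 = no effect, 100 = complete control).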

crabgrass, large [2] = test: Test A preemergence; type: in vivo, Digitaria sanguinalis; details: for Crabgrass, Large plant response rating (0 to 100 scale): 125 g ai/ha, visual injury approx. 10 days after treatment
Outline: as §1

corn [3] = test: Test A postemergence; type: in vivo, Zea mays; details: Postemergence
Outline: as §1

morningglory [4] = test: Test A preemergence; type: in vivo, Ipomoea spp.; details: for Morningglory plant response rating (0 to 100 scale): preemergence, 125 g ai/ha, visual injury approx. 10 days after treatment
Outline: as §1

sedge, umbrella [5] = test: Test C flooded paddy test; type: in vivo, Cyperus difformis; details: Flood
From the text: (§2) At time of treatment, test pots were flooded to 3 cm above the soil surface, treated by application of test compounds directly to the paddy water, and then maintained at that water depth for the duration of the test. Treated plants and controls were maintained in a greenhouse for 13 to 15 days, after which time all species were compared to controls and visually evaluated. […] A dash (-) response means no test result.

pigweed [6] = test: Test A postemergence; type: in vivo, Amaranthus retroflexus; details: Postemergence
Outline: as §1

foxtail, giant [7] = test: Test A preemergence; type: in vivo, Setaria faberii; details: for Foxtail, Giant plant response rating (0 to 100 scale): 125 g ai/ha, visual injury approx. 10 days after treatment
Outline: as §1

morningglory [8] = test: Test A postemergence; type: in vivo, Ipomoea spp.; details: Postemergence
Outline: as §1

barnyardgrass [9] = test: Test C flooded paddy test; type: in vivo, Echinochloa crus-galli; details: Flood
From the text: as §2

rice [10] = test: Test C flooded paddy test; type: in vivo, Oryza sativa; details: Flood
From the text: as §2

wheat [11] = test: Test A preemergence; type: in vivo, Triticum aestivum; details: for Wheat plant response rating (0 to 100 scale): preemergence, 125 g ai/ha, visual injury approx. 10 days after treatment
Outline: as §1

barnyardgrass [12] = test: Test A preemergence; type: in vivo, Echinochloa crus-galli; details: for Barnyardgrass plant response rating (0 to 100 scale, 0 is no effect, 100 is complete control): 125 g ai/ha, visual injury approx. 10 days after treatment
Outline: as §1

wheat [13] = test: Test A postemergence; type: in vivo, Triticum aestivum; details: Postemergence
Outline: as §1

velvetleaf [14] = test: Test A postemergence; type: in vivo, Abutilon theophrasti; details: Postemergence
Outline: as §1

pigweed [15] = test: Test A preemergence; type: in vivo, Amaranthus retroflexus; details: for Pigweed plant response rating (0 to 100 scale): preemergence, 125 g ai/ha, visual injury approx. 10 days after treatment
Outline: as §1

barnyardgrass [16] = test: Test A postemergence; type: in vivo, Echinochloa crus-galli; details: Postemergence
Outline: as §1

corn [17] = test: Test A preemergence; type: in vivo, Zea mays; details: for Corn plant response rating (0 to 100 scale): 125 g ai/ha, visual injury approx. 10 days after treatment
Outline: as §1

velvetleaf [18] = test: Test A preemergence; type: in vivo, Abutilon theophrasti; details: for Velvetleaf plant response rating (0 to 100 scale): preemergence, 125 g ai/ha, visual injury approx. 10 days after treatment
Outline: as §1

foxtail, giant [19] = test: Test A postemergence; type: in vivo, Setaria faberii; details: Postemergence
Outline: as §1

sedge, umbrella [20] = test: Test B flood; type: in vivo, Cyperus difformis; details: 250 g ai/ha, visual rating on 0 to 100 scale (0 no effect, 100 complete control), 13 to 15 days
Outline: (§3)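 Visual ratings (0 = no effect, 100 = complete control) versus untreated controls were taken 13–15 days after treatment of greenhouse plants. Treatment was added to paddy water held at 3 cm depth on 2-leaf-stage seedlings.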

ducksalad = test: Test B flood; type: in vivo, Heteranthera limosa; details: 250 g ai/ha, visual rating on 0 to 100 scale (0 no effect, 100 complete control), 13 to 15 days
Outline: as §3

barnyardgrass [21] = test: Test B flood; type: in vivo, Echinochloa crus-galli; details: 250 g ai/ha, visual rating on 0 to 100 scale (0 no effect, 100 complete control), 13 to 15 days
Outline: as §3

rice [22] = test: Test B flood; type: in vivo, Oryza sativa; details: 250 g ai/ha, visual rating on 0 to 100 scale (0 no effect, 100 complete control), 13 to 15 days
Outline: as §3

[23] = 1000 g ai/ha, visual rating after approx. 10 days, 0 to 100 scale (0 no effect, 100 complete control)
[24] = Preemergence, 1000 g ai/ha, 0 to 100 scale, 0 no effect, 100 complete control
[25] = 31 g ai/ha, scale 0 to 100 (0 no effect, 100 complete control)
[26] = 62 g ai/ha, scale 0 to 100 (0 no effect, 100 complete control)
[27] = 125 g ai/ha, 0 to 100 scale, 0 no effect, 100 complete control
[28] = 500 g ai/ha, 0 to 100 scale (0 no effect, 100 complete control)
[29] = preemergence, 500 g ai/ha, visual injury after approx. 10 days, 0 to 100 scale (0 no effect, 100 complete control)

CCCc1cc(C(=O)NCC(F)(F)F)nn1Cc1cccc(C(F)(F)F)c1 [Compound 31]
Crabgrass, Large plant response rating (crabgrass, large [1]; [23]): 60
Crabgrass, Large plant response rating (crabgrass, large [2]; [24]): 100
Corn plant response rating (corn [3]; [23]): 20
Morningglory plant response rating (morningglory [4]; [24]): 40
Plant response rating, Sedge, Umbrella (sedge, umbrella [5]; [25]): 30
Plant response rating, Sedge, Umbrella (sedge, umbrella [5]; [26]): 70
Plant response rating, Sedge, Umbrella (sedge, umbrella [5]; 125 g ai/ha, scale 0 to 100): 85
Plant response rating, Sedge, Umbrella (sedge, umbrella [5]; 250 g ai/ha, scale 0 to 100): 85
Pigweed plant response rating (pigweed [6]; [23]): 100
Foxtail, Giant plant response rating (foxtail, giant [7]; [24]): 100
Morningglory plant response rating (morningglory [8]; [23]): 100
Plant response rating, Barnyardgrass (barnyardgrass [9]; [25]): 0
Plant response rating, Barnyardgrass (barnyardgrass [9]; [26]): 0
Plant response rating, Barnyardgrass (barnyardgrass [9]; 125 g ai/ha, scale 0 to 100): 0
Plant response rating, Barnyardgrass (barnyardgrass [9]; 250 g ai/ha, scale 0 to 100): 20
Plant response rating, Rice (rice [10]; [25]): 0
Plant response rating, Rice (rice [10]; [26]): 0
Plant response rating, Rice (rice [10]; 125 g ai/ha, scale 0 to 100): 0
Plant response rating, Rice (rice [10]; 250 g ai/ha, scale 0 to 100): 15
Wheat plant response rating (wheat [11]; [24]): 10
Barnyardgrass plant response rating (barnyardgrass [12]; [24]): 50
Wheat plant response rating (wheat [13]; [23]): 30
Velvetleaf plant response rating (velvetleaf [14]; [23]): 100
Pigweed plant response rating (pigweed [15]; [24]): 90
Barnyardgrass plant response rating (barnyardgrass [16]; [23]): 60
Corn plant response rating (corn [17]; [24]): 10
Velvetleaf plant response rating (velvetleaf [18]; [24]): 50
Foxtail, Giant plant response rating (foxtail, giant [19]; [23]): 70

CCc1cc(C(=O)NC2CC2)nn1Oc1cccc(OC(F)(F)F)c1 [Compound 222]
Crabgrass, Large plant response rating (crabgrass, large [1]; [27]): 40
Crabgrass, Large plant response rating (crabgrass, large [1]; [28]): 90
Plant response rating, Sedge, Umbrella (sedge, umbrella [20]): 65
Crabgrass, Large plant response rating (0 to 100 scale) (crabgrass, large [2]; preemergence): 80
Crabgrass, Large plant response rating (crabgrass, large [2]; [29]): 100
Corn plant response rating (corn [3]; [27]): 0
Corn plant response rating (corn [3]; [28]): 60
Morningglory plant response rating (0 to 100 scale) (morningglory [4]): 0
Plant response rating, Ducksalad (ducksalad): 55
Plant response rating, Barnyardgrass (barnyardgrass [21]): 0
Plant response rating, Rice (rice [22]): 15
Pigweed plant response rating (pigweed [6]; [27]): 30
Pigweed plant response rating (pigweed [6]; [28]): 100
Foxtail, Giant plant response rating (0 to 100 scale) (foxtail, giant [7]; preemergence): 0
Foxtail, Giant plant response rating (foxtail, giant [7]; [29]): 80
Morningglory plant response rating (morningglory [8]; [27]): 30
Morningglory plant response rating (morningglory [8]; [28]): 50
Wheat plant response rating (0 to 100 scale) (wheat [11]): 0
Barnyardgrass plant response rating (0 to 100 scale, 0 is no effect, 100 is complete control) (barnyardgrass [12]; preemergence): 0
Barnyardgrass plant response rating (barnyardgrass [12]; [29]): 90
Wheat plant response rating (wheat [13]; [27]): 0
Wheat plant response rating (wheat [13]; [28]): 20
Velvetleaf plant response rating (velvetleaf [14]; [27]): 30
Velvetleaf plant response rating (velvetleaf [14]; [28]): 50
Pigweed plant response rating (0 to 100 scale) (pigweed [15]): 20
Barnyardgrass plant response rating (barnyardgrass [16]; [27]): 80
Barnyardgrass plant response rating (barnyardgrass [16]; [28]): 80
Corn plant response rating (0 to 100 scale) (corn [17]; preemergence): 0
Corn plant response rating (corn [17]; [29]): 0
Velvetleaf plant response rating (0 to 100 scale) (velvetleaf [18]): 0
Foxtail, Giant plant response rating (foxtail, giant [19]; [27]): 20
Foxtail, Giant plant response rating (foxtail, giant [19]; [28]): 70

CCNC(=O)c1cc(CC)n(Oc2cccc(OC(F)(F)F)c2)n1 [Compound 223]
Crabgrass, Large plant response rating (crabgrass, large [1]; [27]): 20
Crabgrass, Large plant response rating (crabgrass, large [1]; [28]): 70
Plant response rating, Sedge, Umbrella (sedge, umbrella [20]): 65
Crabgrass, Large plant response rating (0 to 100 scale) (crabgrass, large [2]; preemergence): 20
Crabgrass, Large plant response rating (crabgrass, large [2]; [29]): 90
Corn plant response rating (corn [3]; [27]): 0
Corn plant response rating (corn [3]; [28]): 30
Morningglory plant response rating (0 to 100 scale) (morningglory [4]): 0
Plant response rating, Ducksalad (ducksalad): 25
Plant response rating, Barnyardgrass (barnyardgrass [21]): 0
Plant response rating, Rice (rice [22]): 25
Pigweed plant response rating (pigweed [6]; [27]): 20
Pigweed plant response rating (pigweed [6]; [28]): 60
Foxtail, Giant plant response rating (0 to 100 scale) (foxtail, giant [7]; preemergence): 0
Foxtail, Giant plant response rating (foxtail, giant [7]; [29]): 20
Morningglory plant response rating (morningglory [8]; [27]): 0
Morningglory plant response rating (morningglory [8]; [28]): 30
Wheat plant response rating (0 to 100 scale) (wheat [11]): 0
Barnyardgrass plant response rating (0 to 100 scale, 0 is no effect, 100 is complete control) (barnyardgrass [12]; preemergence): 0
Barnyardgrass plant response rating (barnyardgrass [12]; [29]): 40
Wheat plant response rating (wheat [13]; [27]): 0
Wheat plant response rating (wheat [13]; [28]): 10
Velvetleaf plant response rating (velvetleaf [14]; [27]): 0
Velvetleaf plant response rating (velvetleaf [14]; [28]): 30
Pigweed plant response rating (0 to 100 scale) (pigweed [15]): 0
Barnyardgrass plant response rating (barnyardgrass [16]; [27]): 0
Barnyardgrass plant response rating (barnyardgrass [16]; [28]): 50
Corn plant response rating (0 to 100 scale) (corn [17]; preemergence): 0
Corn plant response rating (corn [17]; [29]): 0
Velvetleaf plant response rating (0 to 100 scale) (velvetleaf [18]): 0
Foxtail, Giant plant response rating (foxtail, giant [19]; [27]): 0
Foxtail, Giant plant response rating (foxtail, giant [19]; [28]): 30

CCCNC(=O)c1cc(COC)n(Cc2cc(C(F)(F)C(F)(F)F)nn2C)n1 [Compound 228]
Crabgrass, Large plant response rating (crabgrass, large [1]; [27]): 20
Crabgrass, Large plant response rating (crabgrass, large [1]; [28]): 60
Plant response rating, Sedge, Umbrella (sedge, umbrella [20]): 30
Crabgrass, Large plant response rating (0 to 100 scale) (crabgrass, large [2]; preemergence): 90
Crabgrass, Large plant response rating (crabgrass, large [2]; [29]): 100
Corn plant response rating (corn [3]; [27]): 10
Corn plant response rating (corn [3]; [28]): 50
Morningglory plant response rating (0 to 100 scale) (morningglory [4]): 30
Plant response rating, Ducksalad (ducksalad): 30
Plant response rating, Barnyardgrass (barnyardgrass [21]): 0
Plant response rating, Rice (rice [22]): 0
Pigweed plant response rating (pigweed [6]; [27]): 30
Pigweed plant response rating (pigweed [6]; [28]): 80
Foxtail, Giant plant response rating (0 to 100 scale) (foxtail, giant [7]; preemergence): 30
Foxtail, Giant plant response rating (foxtail, giant [7]; [29]): 80
Morningglory plant response rating (morningglory [8]; [27]): 50
Morningglory plant response rating (morningglory [8]; [28]): 100
Wheat plant response rating (0 to 100 scale) (wheat [11]): 0
Barnyardgrass plant response rating (0 to 100 scale, 0 is no effect, 100 is complete control) (barnyardgrass [12]; preemergence): 10
Barnyardgrass plant response rating (barnyardgrass [12]; [29]): 90
Wheat plant response rating (wheat [13]; [27]): 0
Wheat plant response rating (wheat [13]; [28]): 10
Velvetleaf plant response rating (velvetleaf [14]; [27]): 10
Velvetleaf plant response rating (velvetleaf [14]; [28]): 30
Pigweed plant response rating (0 to 100 scale) (pigweed [15]): 90
Barnyardgrass plant response rating (barnyardgrass [16]; [27]): 0
Barnyardgrass plant response rating (barnyardgrass [16]; [28]): 50
Corn plant response rating (0 to 100 scale) (corn [17]; preemergence): 0
Corn plant response rating (corn [17]; [29]): 30
Velvetleaf plant response rating (0 to 100 scale) (velvetleaf [18]): 0
Foxtail, Giant plant response rating (foxtail, giant [19]; [27]): 10
Foxtail, Giant plant response rating (foxtail, giant [19]; [28]): 60
